# Measured values as given in ChEMBL document CHEMBL5344477, “Discovery of benzoheterocyclic-substituted amide derivatives as apoptosis signal-regulating kinase 1 (ASK1) inhibitors” (RSC Med Chem, 2024).
# Test: Metabolic stability in human liver microsomes assessed as clearance at 1 uM measured upto 90 mins by LC-MS/MS analysis
# Format: ADME, Microsome
# Settings: read-out: CLH
row,SMILES,CLint scaled at 1 µM [mL/min/kg]
1,O=C1COc2cc(F)c(C(=O)Nc3cccc(-c4nncn4C4CCCC4)n3)cc2N1,94.3
2,CC(C)n1cnnc1-c1cccc(NC(=O)c2cc3c(cc2F)OCC(=O)N3)n1,3
3,O=C(Nc1cccc(-c2nncn2-c2ccccc2)n1)c1cc2c(cc1F)OCc1cncn1-2,26.4
4,O=C(Nc1cccc(-c2nncn2CC2CC2)c1)c1cc2c(cc1F)OCc1cncn1-2,25.8
5,O=C(Nc1cccc(-c2nncn2C2CC2)n1)c1cc2c(cc1F)OCc1cncn1-2,21.7
6,CC(CO)n1cnnc1-c1cccc(NC(=O)c2cc3c(cc2F)CCCC(=O)N3C)n1 (stereo not given),8.5

# Test: Metabolic stability in human liver microsomes assessed as half life at 1 uM measured upto 90 mins by LC-MS/MS analysis
# Format: ADME, Microsome
# Settings: not given
row,SMILES,half-life at 1 µM [h]
1,O=C1COc2cc(F)c(C(=O)Nc3cccc(-c4nncn4C4CCCC4)n3)cc2N1,0.307
2,CC(C)n1cnnc1-c1cccc(NC(=O)c2cc3c(cc2F)OCC(=O)N3)n1,9.74
3,O=C(Nc1cccc(-c2nncn2-c2ccccc2)n1)c1cc2c(cc1F)OCc1cncn1-2,1.1
4,O=C(Nc1cccc(-c2nncn2CC2CC2)c1)c1cc2c(cc1F)OCc1cncn1-2,1.12
5,O=C(Nc1cccc(-c2nncn2C2CC2)n1)c1cc2c(cc1F)OCc1cncn1-2,1.34
6,CC(CO)n1cnnc1-c1cccc(NC(=O)c2cc3c(cc2F)CCCC(=O)N3C)n1 (stereo not given),3.41

# Test: Metabolic stability in rat liver microsomes assessed as clearance at 1 uM measured upto 90 mins by LC-MS/MS analysis
# Format: ADME, Microsome
# Settings: read-out: CLH
row,SMILES,CLint scaled at 1 µM [mL/min/kg]
1,O=C1COc2cc(F)c(C(=O)Nc3cccc(-c4nncn4C4CCCC4)n3)cc2N1,70.8
2,CC(C)n1cnnc1-c1cccc(NC(=O)c2cc3c(cc2F)OCC(=O)N3)n1,13.7
3,O=C(Nc1cccc(-c2nncn2-c2ccccc2)n1)c1cc2c(cc1F)OCc1cncn1-2,160
4,O=C(Nc1cccc(-c2nncn2CC2CC2)c1)c1cc2c(cc1F)OCc1cncn1-2,248
5,O=C(Nc1cccc(-c2nncn2C2CC2)n1)c1cc2c(cc1F)OCc1cncn1-2,181
6,CC(CO)n1cnnc1-c1cccc(NC(=O)c2cc3c(cc2F)CCCC(=O)N3C)n1 (stereo not given),14

# Test: Apparent […] clearance in Sprague-Dawley rat at 1 mg/kg, iv measured upto 24 hrs by LC-MS/MS analysis
# Format: ADME, organism-based
# Settings: in vivo
row,SMILES,CL/F [mL/min/kg]
1,O=C1COc2cc(F)c(C(=O)Nc3cccc(-c4nncn4C4CCCC4)n3)cc2N1,18.2
2,CC(C)n1cnnc1-c1cccc(NC(=O)c2cc3c(cc2F)OCC(=O)N3)n1,10.2
3,O=C(Nc1cccc(-c2nncn2CC2CC2)c1)c1cc2c(cc1F)OCc1cncn1-2,38.5
4,CC(CO)n1cnnc1-c1cccc(NC(=O)c2cc3c(cc2F)CCCC(=O)N3C)n1 (stereo not given),76.7

# Test: Half life in Sprague-Dawley rat at 5 mg/kg, po measured upto 24 hrs by LC-MS/MS analysis
# Format: ADME, organism-based
# Settings: in vivo
row,SMILES,half-life [h]
1,O=C1COc2cc(F)c(C(=O)Nc3cccc(-c4nncn4C4CCCC4)n3)cc2N1,2.36
2,CC(C)n1cnnc1-c1cccc(NC(=O)c2cc3c(cc2F)OCC(=O)N3)n1,1.86
3,O=C(Nc1cccc(-c2nncn2CC2CC2)c1)c1cc2c(cc1F)OCc1cncn1-2,0.97
4,CC(CO)n1cnnc1-c1cccc(NC(=O)c2cc3c(cc2F)CCCC(=O)N3C)n1 (stereo not given),1.51

# Test: Cmax in Sprague-Dawley rat at 1 mg/kg, iv measured upto 24 hrs by LC-MS/MS analysis
# Format: ADME, organism-based
# Design: dose 1 mg/kg, time < 24 hrs, route iv
# Settings: in vivo
row,SMILES,Cmax [ng/mL]
1,O=C1COc2cc(F)c(C(=O)Nc3cccc(-c4nncn4C4CCCC4)n3)cc2N1,1080
2,CC(C)n1cnnc1-c1cccc(NC(=O)c2cc3c(cc2F)OCC(=O)N3)n1,1040
3,O=C(Nc1cccc(-c2nncn2CC2CC2)c1)c1cc2c(cc1F)OCc1cncn1-2,812
4,CC(CO)n1cnnc1-c1cccc(NC(=O)c2cc3c(cc2F)CCCC(=O)N3C)n1 (stereo not given),440

# Test: AUClast in Sprague-Dawley rat at 5 mg/kg, po measured upto 24 hrs by LC-MS/MS analysis
# Format: ADME, organism-based
# Design: dose 5 mg/kg, time < 24 hrs, route po
# Settings: in vivo
row,SMILES,AUC(0-t) at 24 h [ng·h/mL]
1,O=C1COc2cc(F)c(C(=O)Nc3cccc(-c4nncn4C4CCCC4)n3)cc2N1,3390
2,CC(C)n1cnnc1-c1cccc(NC(=O)c2cc3c(cc2F)OCC(=O)N3)n1,4290
3,O=C(Nc1cccc(-c2nncn2CC2CC2)c1)c1cc2c(cc1F)OCc1cncn1-2,865
4,CC(CO)n1cnnc1-c1cccc(NC(=O)c2cc3c(cc2F)CCCC(=O)N3C)n1 (stereo not given),61

# Test: Cmax in Sprague-Dawley rat at 5 mg/kg, po measured upto 24 hrs by LC-MS/MS analysis
# Format: ADME, organism-based
# Design: dose 5 mg/kg, time < 24 hrs, route po
# Settings: in vivo
row,SMILES,Cmax [ng/mL]
1,O=C1COc2cc(F)c(C(=O)Nc3cccc(-c4nncn4C4CCCC4)n3)cc2N1,1490
2,CC(C)n1cnnc1-c1cccc(NC(=O)c2cc3c(cc2F)OCC(=O)N3)n1,1260
3,O=C(Nc1cccc(-c2nncn2CC2CC2)c1)c1cc2c(cc1F)OCc1cncn1-2,635
4,CC(CO)n1cnnc1-c1cccc(NC(=O)c2cc3c(cc2F)CCCC(=O)N3C)n1 (stereo not given),28

# Test: Half life in Sprague-Dawley rat at 1 mg/kg, iv measured upto 24 hrs by LC-MS/MS analysis
# Format: ADME, organism-based
# Settings: in vivo
row,SMILES,half-life [h]
1,O=C1COc2cc(F)c(C(=O)Nc3cccc(-c4nncn4C4CCCC4)n3)cc2N1,0.86
2,CC(C)n1cnnc1-c1cccc(NC(=O)c2cc3c(cc2F)OCC(=O)N3)n1,1.11
3,O=C(Nc1cccc(-c2nncn2CC2CC2)c1)c1cc2c(cc1F)OCc1cncn1-2,0.55
4,CC(CO)n1cnnc1-c1cccc(NC(=O)c2cc3c(cc2F)CCCC(=O)N3C)n1 (stereo not given),0.63

# Test: Metabolic stability in rat liver microsomes assessed as half life at 1 uM measured upto 90 mins by LC-MS/MS analysis
# Format: ADME, Microsome
# Settings: not given
row,SMILES,half-life at 1 µM [h]
1,O=C1COc2cc(F)c(C(=O)Nc3cccc(-c4nncn4C4CCCC4)n3)cc2N1,0.585
2,CC(C)n1cnnc1-c1cccc(NC(=O)c2cc3c(cc2F)OCC(=O)N3)n1,3.02
3,O=C(Nc1cccc(-c2nncn2-c2ccccc2)n1)c1cc2c(cc1F)OCc1cncn1-2,0.258
4,O=C(Nc1cccc(-c2nncn2CC2CC2)c1)c1cc2c(cc1F)OCc1cncn1-2,0.167
5,O=C(Nc1cccc(-c2nncn2C2CC2)n1)c1cc2c(cc1F)OCc1cncn1-2,0.228
6,CC(CO)n1cnnc1-c1cccc(NC(=O)c2cc3c(cc2F)CCCC(=O)N3C)n1 (stereo not given),2.96

# Test: AUClast in Sprague-Dawley rat at 1 mg/kg, iv measured upto 24 hrs by LC-MS/MS analysis
# Format: ADME, organism-based
# Design: dose 1 mg/kg, time < 24 hrs, route iv
# Settings: in vivo
row,SMILES,AUC(0-t) at 24 h [ng·h/mL]
1,O=C1COc2cc(F)c(C(=O)Nc3cccc(-c4nncn4C4CCCC4)n3)cc2N1,919
2,CC(C)n1cnnc1-c1cccc(NC(=O)c2cc3c(cc2F)OCC(=O)N3)n1,1630
3,O=C(Nc1cccc(-c2nncn2CC2CC2)c1)c1cc2c(cc1F)OCc1cncn1-2,431
4,CC(CO)n1cnnc1-c1cccc(NC(=O)c2cc3c(cc2F)CCCC(=O)N3C)n1 (stereo not given),216

# Test: Oral bioavailability in Sprague-Dawley rat at 5 mg/kg measured upto 24 hrs by LC-MS/MS analysis
# Format: ADME, organism-based
# Settings: in vivo
row,SMILES,bioavailability [%]
1,O=C1COc2cc(F)c(C(=O)Nc3cccc(-c4nncn4C4CCCC4)n3)cc2N1,77.7
2,CC(C)n1cnnc1-c1cccc(NC(=O)c2cc3c(cc2F)OCC(=O)N3)n1,56.4
3,O=C(Nc1cccc(-c2nncn2CC2CC2)c1)c1cc2c(cc1F)OCc1cncn1-2,40.2
4,CC(CO)n1cnnc1-c1cccc(NC(=O)c2cc3c(cc2F)CCCC(=O)N3C)n1 (stereo not given),5.9

# Test: Volume of distribution at steady state in Sprague-Dawley rat at 1 mg/kg, iv measured upto 24 hrs by LC-MS/MS analysis
# Format: ADME, organism-based
# Settings: in vivo, read-out: Vdss
row,SMILES,Vd [L/kg]
1,O=C1COc2cc(F)c(C(=O)Nc3cccc(-c4nncn4C4CCCC4)n3)cc2N1,0.97
2,CC(C)n1cnnc1-c1cccc(NC(=O)c2cc3c(cc2F)OCC(=O)N3)n1,0.85
3,O=C(Nc1cccc(-c2nncn2CC2CC2)c1)c1cc2c(cc1F)OCc1cncn1-2,1.08
4,CC(CO)n1cnnc1-c1cccc(NC(=O)c2cc3c(cc2F)CCCC(=O)N3C)n1 (stereo not given),2.36
